Measurements as given in ChEMBL document CHEMBL5150018, “Subtilisin-like Serine Protease 1 (SUB1) as an Emerging Antimalarial Drug Target: Current Achievements in Inhibitor Discovery” (J Med Chem, 2022).
*1 amine or outer side, *2 acyl side, *3 side chain or, on linkers, in order; H or OH if unused. Where a SMILES comes first, the peptide text is derived from it. [ ]: non-standard residue; d: D form. The star is where a group is joined. Abu(ψCOCO) = CC[C@H](N[*:1])C(=O)C(=O)[*:2]; X1 = NC(=O)CC[C@H](N[*:1])C(=O)C(=O)[*:2]; X2 = C[C@H](N[*:1])C(=O)C(F)(F)C(=O)[*:2]; Pentanoyl(4-Me) = CC(C)CCC(=O)*; Bn = c1ccc(C*)cc1; CF3 = FC(F)(F)*; NHcPr = C1CC1N*

Key:
[1] = biological target: T1, Subtilisin-like protease 1 (Plasmodium falciparum, UniProt O61142); test: Inhibition of Plasmodium falciparum SUB1 in intact schizonts
T1 sequence (O61142 whole entry): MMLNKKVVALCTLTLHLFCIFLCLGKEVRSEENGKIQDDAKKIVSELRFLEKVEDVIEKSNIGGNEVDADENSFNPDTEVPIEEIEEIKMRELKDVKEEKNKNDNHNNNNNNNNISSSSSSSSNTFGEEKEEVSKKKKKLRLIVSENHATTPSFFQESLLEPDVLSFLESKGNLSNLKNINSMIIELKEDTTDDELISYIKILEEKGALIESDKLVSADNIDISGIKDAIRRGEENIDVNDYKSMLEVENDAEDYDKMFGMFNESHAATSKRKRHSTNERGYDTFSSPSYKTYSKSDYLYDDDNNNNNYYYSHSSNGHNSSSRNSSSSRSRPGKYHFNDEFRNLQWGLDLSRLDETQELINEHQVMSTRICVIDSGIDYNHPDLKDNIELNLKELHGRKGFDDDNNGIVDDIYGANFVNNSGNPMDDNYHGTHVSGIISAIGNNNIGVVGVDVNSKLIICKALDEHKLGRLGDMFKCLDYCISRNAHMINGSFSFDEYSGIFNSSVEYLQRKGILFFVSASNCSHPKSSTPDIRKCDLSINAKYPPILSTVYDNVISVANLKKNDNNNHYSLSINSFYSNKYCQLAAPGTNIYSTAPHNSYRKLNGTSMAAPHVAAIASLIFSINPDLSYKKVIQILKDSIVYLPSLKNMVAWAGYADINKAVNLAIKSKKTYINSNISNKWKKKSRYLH

[2] = biological target: T1, Subtilisin-like protease 1; test: Binding affinity to Plasmodium falciparum SUB1 using KLVSADNIDIS peptide as substrate by FRET assay
Plasmodium falciparum [3] = test: Antimalarial activity against Plasmodium falciparum 3D7 assessed as inhibition of parasitic growth measured after 48 hrs; format: functional, organism-based; details: 3D7, 48 h
Plasmodium falciparum [4] = test: Antimalarial activity against Plasmodium falciparum Dd2 assessed as inhibition of parasitic growth measured after 48 hrs; format: functional, organism-based; details: Dd2, 48 h
Plasmodium falciparum [5] = test: Antimalarial activity against synchronized Plasmodium falciparum 3D7 infected in human RBC assessed as inhibition of cell invasion incubated for 4 to 8 hrs by Giemsa staining based microscopic analysis; format: functional; details: 3D7, Erythrocyte, time 4-8 hrs, read-out: ED50 (the source's name)
Plasmodium falciparum [6] = test: Antimalarial activity against synchronized Plasmodium falciparum 3D7 infected in human RBC assessed as inhibition of parasite growth at schizont stage incubated for 4 to 8 hrs by Giemsa staining based microscopic analysis; format: functional; details: 3D7, Erythrocyte, time 4-8 hrs, read-out: ED50 (the source's name)
[7] = biological target: T1, Subtilisin-like protease 1; test: Inhibition of recombinant Plasmodium falciparum SUB1 using SERA4st1F-6R1 as substrate by fluorescence spectrophotometer
[8] = biological target: T1, Subtilisin-like protease 1; test: Inhibition of Plasmodium falciparum SUB1
Plasmodium falciparum [9] = test: Antimalarial activity against Plasmodium falciparum 3D7 assessed as inhibition of parasite growth incubated for 96 hrs by SYBR Green dye based assay; format: functional, organism-based; details: 3D7, 96 h
[10] = Inhibition of recombinant Plasmodium knowlesi SUB1 using SERA4st1F-6R1 as substrate by fluorescence spectrophotometer
[11] = Inhibition of recombinant Plasmodium vivax SUB1 using SERA4st1F-6R1 as substrate by fluorescence spectrophotometer
[12] = biological target: T1, Subtilisin-like protease 1; test: Inhibition of recombinant C-terminal 6-His tagged Plasmodium falciparum SUB1 expressed in baculovirus expression system
[13] = Inhibition of recombinant C-terminal 6-His tagged Plasmodium vivax SUB1 expressed in baculovirus expression system
[14] = Inhibition of Plasmodium vivax SUB1
[15] = Inhibition of Bacillus licheniformis Subtilisin A

O=C(CCCCCNC(=O)CCCC[C@H]1SC[C@H]2NC(=O)N[C@H]21)NCCCCCC(=O)Nc1ccc2c(Cl)c(OCCc3ccccc3)oc(=O)c2c1
IC50 [1]: 18 µM

CSc1ccc(CCNC(=O)Cn2ncc3c([nH]c4ccccc43)c2=O)cc1
Ki [2]: 14.7 µM | IC50 (Plasmodium falciparum [3]): > 50 µM | IC50 (Plasmodium falciparum [4]): > 50 µM

O=C(Nc1ccc(-c2nc3cc(NC(=O)c4ccccc4)ccc3[nH]2)cc1)c1ccccc1
Ki [2]: 7.6 µM | IC50 (Plasmodium falciparum [3]): 1.1 µM | IC50 (Plasmodium falciparum [4]): 3.3 µM

Oc1ccc(C2Oc3c(c(O)cc4c3C3c5c(O)cc(O)c(O)c5OC(c5ccc(O)c(O)c5)(O4)C3O)CC2O)cc1O (stereo not given)
EC50 (Plasmodium falciparum [5]): 25 µM | EC50 (Plasmodium falciparum [6]): 108 µM

COc1ccc(Nc2cc(C)c3cc(NC(=O)c4cc5ccccc5[nH]4)ccc3n2)cc1
IC50 (Plasmodium falciparum [3]): 0.37 µM | IC50 (Plasmodium falciparum [4]): 0.45 µM

CC[C@H](C)[C@H](NC(C)=O)C(=O)N[C@H](C(=O)N[C@@H](C)C(=O)N[C@@H](C)C(=O)C(F)(F)C(=O)O)[C@@H](C)O
IC50 [7]: > 50 µM

Nc1cc2nc(Nc3ccc(Br)cc3)c(Nc3ccc(Br)cc3)nc2cc1Cl
IC50 [7]: 17 µM

CC(=O)N[C@H](C(=O)N[C@H](C(=O)NCC(=O)N[C@@H](C)B(O)O)[C@@H](C)O)C1CCCC1
IC50 [8]: 9.3 µM | EC50 (Plasmodium falciparum [9]): 2.3 µM

CC(=O)N[C@H](C(=O)N[C@H](C(=O)NCC(=O)N[C@@H](C)B(O)O)C(C)C)C1CCCC1
IC50 [8]: 5.7 µM | EC50 (Plasmodium falciparum [9]): 0.26 µM

COc1cc(Cl)c(C)cc1NC(=O)Cn1c(=O)n(CC(=O)NC2CCCC2)c(=O)c2ccccc21
Ki [2]: 30 µM | IC50 (Plasmodium falciparum [3]): > 50 µM | IC50 (Plasmodium falciparum [4]): > 50 µM

CC(=O)N[C@H](C(=O)N[C@H](C(=O)NCC(=O)NC(C)C(=O)C(=O)NCCC(=O)O)[C@@H](C)O)C1CCCC1 (stereo not given in full)
IC50 [8]: 0.37 µM

Clc1cc(Nc2nc3ccccc3nc2Nc2ccc(Br)c(Cl)c2)ccc1Br
IC50 [7]: 14 µM

CC[C@H](C)[C@H](NC(C)=O)C(=O)N[C@H](C(=O)NCC(=O)N[C@@H](C)B(O)O)[C@@H](C)O
IC50 [8]: 0.069 µM | EC50 (Plasmodium falciparum [9]): 1.8 µM

CC(=O)N[C@H](C(=O)N[C@@H](C)C(=O)NCC(=O)N[C@@H](C)B(O)O)C1CCCC1
IC50 [8]: 7.8 µM | EC50 (Plasmodium falciparum [9]): 0.34 µM

CCc1cccc(NC(=O)c2ccc3c(=O)n4nc(Nc5cc(C)ccc5C)sc4nc3c2)c1
Ki [2]: 30.1 µM | IC50 (Plasmodium falciparum [3]): 17.1 µM | IC50 (Plasmodium falciparum [4]): 22.3 µM

CC(=O)N[C@H](C(=O)N[C@H](C(=O)NCC(=O)N[C@H]1CCOB1O)[C@@H](C)O)C1CCCC1
IC50 [8]: 4.6 µM | EC50 (Plasmodium falciparum [9]): 15 µM

CC(C)[C@H](NC(=O)Cc1ccccc1)C(=O)NCC(=O)N[C@@H](C)C(=O)C(F)(F)C(=O)NCC(=O)O
IC50 [7]: 1 µM

CS(=O)(=O)Nc1cc2nc(Nc3ccc(Br)cc3)c(Nc3ccc(Br)cc3)nc2cc1Cl
IC50 [7]: 11 µM

Brc1ccc(Nc2nc3ccccc3nc2Nc2ccc(Br)cc2)cc1
IC50 [7]: 10 µM

CC[C@H](C)[C@H](NC(C)=O)C(=O)N[C@H](C(=O)N[C@@H](C)C(=O)N[C@@H](C)C(=O)C(F)(F)F)[C@@H](C)OCc1ccccc1 (Ac-IT(Bn)AA-CF3)
IC50 [7]: > 50 µM

CC[C@H](C)[C@H](NC(C)=O)C(=O)N[C@H](C(=O)N[C@@H](C)C(=O)N[C@@H](C)C(=O)C(F)(F)C(=O)NCC(=O)O)[C@@H](C)O (Ac-ITA[X2]G-OH)
IC50 [10]: 0.68 µM | IC50 [11]: 2.2 µM

CC[C@H](C)[C@H](NC(C)=O)C(=O)N[C@H](C(=O)NCC(=O)N[C@@H](C)C(=O)C(F)(F)C(=O)NCC(=O)O)C(C)C (Ac-IVG[X2]G-OH)
IC50 [7]: 0.25 µM

CC[C@H](NC(=O)[C@H](C)NC(=O)[C@@H](NC(=O)[C@@H](NC(=O)[C@H](CCCCN)NC(C)=O)[C@@H](C)CC)[C@@H](C)O)C(=O)C(=O)NC1CC1 (Ac-KITA[Abu(ψCOCO)]-NHcPr)
IC50 [12]: 6 µM | IC50 [13]: 12 µM

CC[C@H](C)[C@H](NC(=O)[C@H](CCCCN)NC(C)=O)C(=O)N[C@H](C(=O)N[C@@H](C)C(=O)N[C@@H](C)C(=O)C(F)(F)C(=O)NCC(=O)O)[C@@H](C)O (Ac-KITA[X2]G-OH)
IC50 [10]: 1.12 µM | IC50 [11]: 2.5 µM

CC[C@H](C)[C@H](NC(=O)[C@H](CCCCN)NC(=O)CCC(C)C)C(=O)N[C@H](C(=O)N[C@@H](C)C(=O)N[C@@H](CCC(N)=O)C(=O)C(=O)N[C@@H](CC(=O)O)C(=O)N[C@@H](CC(=O)O)C(=O)N[C@@H](CCC(N)=O)C(=O)N[C@@H](CCC(N)=O)C(N)=O)[C@@H](C)O ({Pentanoyl(4-Me)}-KITA[X1]DDQQ-NH2)
IC50 [8]: 17.8 µM | IC50 [14]: 10.5 µM

CC1(C)CC[C@]2(C(=O)O)CC[C@]3(C)C(=CC[C@@H]4[C@@]5(C)C[C@@H](O)[C@H](O)C(C)(C)[C@@H]5CC[C@]43C)[C@@H]2C1 [MASLINIC ACID]
IC50 [15]: 59.3 µM
